Converted amounts (≈) assume the structure as drawn. The source made the active and inactive calls. No cut-off for these calls is given here.
Key:
[1] = system: Escherichia coli; test: Antibacterial activity against tetracycline-resistant Escherichia coli clinical isolates by broth microdilution method; assay type: functional
[2] = system: Escherichia coli; test: Antibacterial activity against tetracycline-susceptible Escherichia coli clinical isolates by broth microdilution method; assay type: functional
[3] = system: Escherichia coli; test: Antibacterial activity against tetracycline-resistant Escherichia coli clinical isolates expressing tet(A), tet(B) gene by broth microdilution method; assay type: functional
[4] = system: Escherichia coli; test: Antibacterial activity against tetracycline-resistant Escherichia coli clinical isolates expressing tet(A), tet(E) gene by broth microdilution method; assay type: functional, organism-based
[5] = system: Escherichia coli; test: Antibacterial activity against tetracycline-resistant Escherichia coli clinical isolates expressing tet(D), tet(E) gene by broth microdilution method; assay type: functional, organism-based
[6] = system: Escherichia coli; test: Antibacterial activity against tetracycline-resistant Escherichia coli clinical isolates expressing tet(B), tet(D), tet(E) gene by broth microdilution method; assay type: functional, organism-based
[7] = system: Escherichia coli; test: Antibacterial activity against tetracycline-resistant Escherichia coli clinical isolates expressing tet(A), tet(B), tet(D) gene by broth microdilution method; assay type: functional, organism-based
[8] = system: Escherichia coli; test: Antibacterial activity against tetracycline-resistant Escherichia coli clinical isolates expressing tet(B), tet(E) gene by broth microdilution method; assay type: functional
[9] = system: Escherichia coli; test: Antibacterial activity against tetracycline-resistant Escherichia coli clinical isolates expressing tet(C), tet(E) gene by broth microdilution method; assay type: functional, organism-based
[10] = system: Escherichia coli; test: Antibacterial activity against tetracycline-resistant Escherichia coli clinical isolates expressing tet(B), tet(C) gene by broth microdilution method; assay type: functional, organism-based
[11] = system: Escherichia coli; test: Antibacterial activity against tetracycline-resistant Escherichia coli clinical isolates expressing tet(A), tet(B), tet(D), tet(E) gene by broth microdilution method; assay type: functional, organism-based
[12] = system: Escherichia coli; test: Antibacterial activity against tetracycline-resistant Escherichia coli clinical isolates without tet(B) gene by broth microdilution method; assay type: functional
[13] = system: Escherichia coli; test: Antibacterial activity against tetracycline-resistant Escherichia coli clinical isolates expressing tet(A), tet(D) gene by broth microdilution method; assay type: functional
[14] = system: Escherichia coli; test: Antibacterial activity against tetracycline-resistant Escherichia coli clinical isolates expressing tet(M) gene by broth microdilution method; assay type: functional, organism-based
[15] = system: Escherichia coli; test: Antibacterial activity against tetracycline-resistant Escherichia coli clinical isolates expressing tet(A), tet(M) gene by broth microdilution method; assay type: functional, organism-based
[16] = system: Escherichia coli; test: Antibacterial activity against tetracycline-resistant Escherichia coli clinical isolates expressing tet(B) gene by broth microdilution method; assay type: functional
[17] = system: Escherichia coli; test: Antibacterial activity against tetracycline-resistant Escherichia coli clinical isolates expressing tet(C) gene by broth microdilution method; assay type: functional, organism-based
[18] = system: Escherichia coli; test: Antibacterial activity against tetracycline-resistant Escherichia coli clinical isolates expressing tet(D) gene by broth microdilution method; assay type: functional
[19] = system: Escherichia coli; test: Antibacterial activity against tetracycline-resistant Escherichia coli clinical isolates expressing tet(E) gene by broth microdilution method; assay type: functional, organism-based
[20] = system: Escherichia coli; test: Antibacterial activity against tetracycline-resistant Escherichia coli clinical isolates expressing tet(B), tet(D) gene by broth microdilution method; assay type: functional
[21] = system: Escherichia coli; test: Antibacterial activity against tetracycline-resistant Escherichia coli with multiple drug resistance determinant isolates by broth microdilution method; assay type: functional
[22] = system: Escherichia coli; test: Antibacterial activity against tetracycline-resistant Escherichia coli with single drug resistance determinant isolates by broth microdilution method; assay type: functional
[23] = system: Escherichia coli; test: Antibacterial activity against tetracycline-resistant Escherichia coli clinical isolates expressing tet(A) gene by broth microdilution method; assay type: functional
[24] = system: Escherichia coli; test: Antibacterial activity against Escherichia coli ATCC 25922 by broth microdilution method; assay type: functional, organism-based

Row | SMILES | MIC50 [1] [mg/L] | MIC90 [1] [mg/L] | MIC90 [2] [mg/L] | MIC50 [3] [mg/L] | MIC90 [3] [mg/L] | Activity [4] | Activity [5] | Activity [6] | Activity [7] | MIC50 [8] [mg/L] | MIC90 [8] [mg/L] | Activity [9] | Activity [10] | Activity [11] | MIC50 [12] [mg/L] | MIC90 [12] [mg/L] | MIC50 [13] [mg/L] | MIC90 [13] [mg/L] | Activity [14] | Activity [15] | other results
1 | CN(C)[C@@H]1C(O)=C(C(N)=O)C(=O)[C@@]2(O)C(O)=C3C(=O)c4c(O)cccc4[C@@](C)(O)[C@H]3C[C@@H]12 [TETRACYCLINE] | > 64 | > 64 | 4 (≈ 9 µM) | > 64 | > 64 | inactive | inactive | inactive | inactive | > 64 | > 64 | inactive | inactive | inactive | > 64 | > 64 | > 64 | > 64 | inactive | inactive | MIC50 [16]: > 64 mg/L; MIC90 [16]: > 64 mg/L; Activity [17]: inactive; MIC50 [18]: > 64 mg/L; MIC90 [18]: > 64 mg/L; Activity [19]: inactive; MIC50 [20]: > 64 mg/L; MIC90 [20]: > 64 mg/L; MIC50 [21]: > 64 mg/L; MIC90 [21]: > 64 mg/L; MIC50 [22]: > 64 mg/L; MIC90 [22]: > 64 mg/L; MIC50 [23]: > 64 mg/L; MIC90 [23]: 64 mg/L (≈ 144 µM)
2 | CN(C)c1ccc(O)c2c1C[C@H]1C[C@H]3[C@H](N(C)C)C(O)=C(C(N)=O)C(=O)[C@@]3(O)C(O)=C1C2=O [MINOCYCLINE] | 4 (≈ 8.74 µM) | 8 (≈ 17.5 µM) | 2 (≈ 4.37 µM) | 16 (≈ 35 µM) | 32 (≈ 69.9 µM) | inactive | inactive | inactive | inactive | 8 (≈ 17.5 µM) | 32 (≈ 69.9 µM) | inactive | inactive | inactive | 4 (≈ 8.74 µM) | 8 (≈ 17.5 µM) | 4 (≈ 8.74 µM) | 16 (≈ 35 µM) | inactive | inactive | MIC50 [2]: 1 mg/L (≈ 2.19 µM); Activity [24]: inactive; MIC50 [16]: 16 mg/L (≈ 35 µM); MIC90 [16]: 32 mg/L (≈ 69.9 µM); Activity [17]: inactive; MIC50 [18]: 8 mg/L (≈ 17.5 µM); MIC90 [18]: 8 mg/L (≈ 17.5 µM); Activity [19]: inactive; MIC50 [20]: 16 mg/L (≈ 35 µM); MIC90 [20]: 64 mg/L (≈ 140 µM); MIC50 [21]: 8 mg/L (≈ 17.5 µM); MIC90 [21]: 32 mg/L (≈ 69.9 µM); MIC50 [22]: 8 mg/L (≈ 17.5 µM); MIC90 [22]: 32 mg/L (≈ 69.9 µM); MIC50 [23]: 2 mg/L (≈ 4.37 µM); MIC90 [23]: 4 mg/L (≈ 8.74 µM)
3 | CN(C)c1cc(NC(=O)CNC(C)(C)C)c(O)c2c1C[C@H]1C[C@H]3[C@H](N(C)C)C(O)=C(C(N)=O)C(=O)[C@@]3(O)C(O)=C1C2=O [TIGECYCLINE] | 0.5 (≈ 0.854 µM) | 1 (≈ 1.71 µM) | 0.5 (≈ 0.854 µM) | 0.25 (≈ 0.427 µM) | 0.5 (≈ 0.854 µM) | inactive | inactive | inactive | inactive | 0.25 (≈ 0.427 µM) | 0.25 (≈ 0.427 µM) | inactive | inactive | inactive | 0.5 (≈ 0.854 µM) | 0.5 (≈ 0.854 µM) | 0.5 (≈ 0.854 µM) | 1 (≈ 1.71 µM) | inactive | inactive | MIC50 [2]: 0.25 mg/L (≈ 0.427 µM); Activity [24]: inactive; MIC50 [16]: 0.25 mg/L (≈ 0.427 µM); MIC90 [16]: 0.5 mg/L (≈ 0.854 µM); Activity [17]: inactive; MIC50 [18]: 0.25 mg/L (≈ 0.427 µM); MIC90 [18]: 0.5 mg/L (≈ 0.854 µM); Activity [19]: inactive; MIC50 [20]: 0.25 mg/L (≈ 0.427 µM); MIC90 [20]: 0.5 mg/L (≈ 0.854 µM); MIC50 [21]: 0.25 mg/L (≈ 0.427 µM); MIC90 [21]: 0.5 mg/L (≈ 0.854 µM); MIC50 [22]: 0.25 mg/L (≈ 0.427 µM); MIC90 [22]: 0.5 mg/L (≈ 0.854 µM); MIC50 [23]: 0.5 mg/L (≈ 0.854 µM); MIC90 [23]: 0.5 mg/L (≈ 0.854 µM)
